Article PMC4380424, “Prediction of Overall In Vitro Microsomal Stability of Drug Candidates Based on Molecular Modeling and Support Vector Machines. Case Study of Novel Arylpiperazines Derivatives” (PLoS ONE, 2015)
“Also recorded” adds a separate entry of the source.

Experiments:
[1] = Metabolic stability: in vitro incubation with human liver microsomes and NADPH, LC-MS quantification; conditions: pooled human liver microsomes, pH 7.4
Method: (§1) The studied compounds were dissolved in acetonitrile (compounds 1, 3, 4, 10, 18, 19, 21, 22, 23, 24, 25, 26, 27, 28, 29), water (compounds 2, 7, 9, 11, 12, 13, 14, 15, 16, 17, 20, 30) or dimethyl sulfoxide (compounds 5 and 6), and diluted in phosphate buffer (pH = 7.4) to obtain 100 μM solutions. A 10 mM NADPH solution in phosphate buffer was prepared before incubations. Final concentrations in the incubation mixes were 5 μM of studied compound, 500 μM of NADPH and 1 mg/ml of human liver microsomes.
(§2) Using a MyBlock mini dry-bath (Benchmark Scientific, NJ, USA), mixtures without the compounds were subjected to a 5 min pre-incubation at 37°C before each experiment. Incubations were initiated with the addition of 15 μL of the compound solution to the mixture. The experiment lasted for 30 min. Immediately after addition of the compound, 50 μL of incubation mixture was collected and mixed with 50 μL of the stopping reagent, which was ice-cold acetonitrile containing 5 μM buspirone as internal standard. The next sample collection points were after 5, 10, 15 and 30 minutes of incubation time. After stopping the reaction, suspensions were centrifuged for 10 minutes at 7378 g using a Microfuge 16 (Beckman Instruments, Fullerton, CA, USA). Subsequently, 70 μL of supernatant thus obtained was directly analyzed using LC-MS (Agilent Technologies, Santa Clara, CA, USA).
(§3) The incubation and LC-MS analysis were repeated twice for each compound. To ensure that the biological conditions were valid, and no compound degradation occurs related to the addition of the enzyme solution, a negative control for each derivative was also performed.
(§4) The LC analysis was carried out using an Agilent 1260 Infinity system (Agilent Technologies) consisting of a binary pump, autosampler, temperature-controlled column compartment and UV variable wavelength detector, coupled with an Agilent 6120 Single Quad mass detector. Incubation samples were separated at 40°C on a Poroshell 120 EC-C-18 column (3 mm x 100 mm, 2.7 μm), provided by Agilent Technologies. The data were collected and processed in ChemStation software (v. B. 04.03, Agilent Technologies, Santa Clara, CA, USA). The injection volume was 10 μL. Mobile phases consisted of deionized water (phase A) and acetonitrile (phase B), both with 10 mM ammonium formate buffer (pH = 3) added. Gradient elution program was as follows: 0–15 min—5%-100% B, 15–16 min—100% B, 16–16.10 min—100%-5% B, 16.10–21 min 5% B. The flow rate was 0.5 ml/min. The total time for a single analysis was 21 minutes. MS detection was performed using an Agilent 6120 Single Quad mass spectrometer (Agilent Technologies) equipped with an electrospray (ESI) ion source. A nebulizer (pressure set to 40 psig) allowed for the gas phase ionization of studied compounds. Nitrogen (NM32LA Nitrogen Generator, Peak Scientific Instruments, Billerica, MA, USA) was used as the drying gas, with a flow rate of 10 L/min and a drying temperature of 300°C. Capillary voltage was set to 3000 V. Fragmentor voltage was set to 150 V. Chromatograms were collected with the use of single ion monitoring (SIM) in positive ion mode.
(§5) Half-life evaluation requires a compound depletion plot, which is obtained by plotting the time of incubation against the logarithmic peak area ratio (the ratio of the compound peak area to the internal standard peak area). […] After the elimination rate constant was designated, half-lives were calculated (Equation 1).

[2] = LC-Q-TOF-MS/MS metabolite structure elucidation after microsomal incubation; conditions: HLM + NADPH incubation
Method: as §1, §2
Tandem mass spectra of the metabolites were obtained with the use of an Agilent 1290 LC system connected to a hybrid Q-TOF tandem mass spectrometer (Agilent 6540 Series Accurate Mass Q-TOF-MS/MS). […] The Dual ESI source was operated in positive ion mode with the following conditions: the fragmentor voltage was set at 150V, nebulizer gas was set at 40 psig, capillary voltage was set at 3000 V, drying gas flow rate and temperature were set at 10 L/min and 300°C, respectively. The MS was operated in targeted MS/MS acquisition mode with a fixed collision energy of 35 V and a mass range of 30–1700 m/z. […] The instrument was operated in High Resolution mode (4 GHz). The Q-TOF was calibrated using reference masses 121.050873, 149.02332 and 922.009798 during the analysis run to ensure constant mass correction.
Several derivatives that varied in their degrees of non-pharmacophore ring saturation, R, R’ substituents and pharmacophore parts (2-pyridyl, 2-pyrimidynyl, phenyl-CF3), were chosen to collect fragmentation spectra using a Q-TOF tandem mass spectrometer and LC conditions as described earlier. […] The compounds’ structures and chromatographs were submitted to MassHunter Workstation Software MetaboliteID ver. B.02.00 build 2.0.121 to detect possible biotransformation products.

[3] = in vitro; conditions: human, microsomes, pH 7.4
Method: as §1, §2, §3, §4, §5

Row | half-life at 5 μM [1] | Type of biotransformation, metabolite M1 [2] | Structure (SMILES) | Type of biotransformation, metabolite M2 [2] | Type of biotransformation, metabolite M3 [2] | half-life at 5 μM [3]
1 | 5.29 min | hydroxylation | O=c1c(-c2ccccc2)c2ccccn2c(=O)n1CCCCN1CCN(c2ncccn2)CC1 [Compound 6] | double hydroxylation in pharmacophore part | – | –
2 | – | – | O=C1C(c2ccccc2)C2CCCCN2C(=O)N1CCCCN1CCN(c2ccccc2F)CC1 (stereo not shown) [Compound 25] | – | – | 5.77 min
3 | 4 min | Hydroxylation in the pharmacophore part | COc1ccccc1-c1c(=O)n(CCCCN2CCN(c3ncccn3)CC2)c(=O)n2ccccc12 [Compound 11] | hydroxylation | O-demethylation reaction along with hydroxylation in the pharmacophore part; also recorded: O-demethylation and hydroxylation | –
4 | 6.59 min | – | O=C1CC2(CCCC2)CC(=O)N1CCCCN1CCN(c2ncccn2)CC1 [Buspirone, buspirone, reference compound] | – | – | –

Row | Structure (SMILES) | half-life at 5 μM [1] | Type of biotransformation, metabolite M1 [2] | Type of biotransformation, metabolite M2 [2] | Type of biotransformation, metabolite M3 [2] | half-life at 5 μM [3]
5 | O=c1c(-c2ccccc2)c2n(c(=O)n1CCCCN1CCN(c3ncccn3)CC1)CCCC2 [Compound 30] | 9.32 min | hydroxylation of the non-pharmacophore part of the molecules; also recorded: hydroxylation in both pharmacophore and non-pharmacophore site | hydroxylation of the non-pharmacophore part of the molecules; also recorded: Hydroxylation in the non-pharmacophore part of the molecule; also recorded: hydroxylation | hydroxylation | –
